# Data reported in patent publication US10328075B2, “Method of treatment and compounds for use therein” (Baker Heart and Diabetes Institute, priority 2015, dated 2019).
# No end group written: not given here.
# Experiment: Body and organ weights of mice after myocardial I-R
# Format: in vivo, mouse
# Settings: for Body Weight / Organ weight (mg), LV / Organ weight (mg), RV / Organ weight (mg), atria / Organ weight (mg), heart / Organ weight (mg), lung / Organ weight: body weight (mg/g), LV / Organ weight: body weight (mg/g), RV / Organ weight: body weight (mg/g), atria / Organ weight: body weight (mg/g), heart / Organ weight: body weight (mg/g), lung / Heart weight normalized to body weight versus sham / Effect on total heart weight and LV weight normalized to body weight: mice; for Body Weight (BW, g) / Organ weight: BW (mg/g), LV / Organ weight: BW (mg/g), RV / Organ weight: BW (mg/g), atria / Organ weight: BW (mg/g), heart / Organ weight: BW (mg/g), lung / BW: Table 7; for Heart weight normalized to body weight versus sham: 48 h reperfusion; for Effect on total heart weight and LV weight normalized to body weight: 7 days reperfusion
# Protocol: Sample collection: After the study period (24 h, 48 h or 7 d), infarcted or sham-operated mice were euthanised, blood was collected by cardiac puncture using a 25G needle and 1 mL syringe coated with heparin (500 U/mL). Plasma was collected from mice after 24 h reperfusion to assess levels of cardiac troponin I (cTnI) levels; whole blood was collected from mice after 48 h reperfusion to assess total and differential white blood cell (WBC) numbers in the circulation. Lungs, atria, left and right ventricles were dissected, blotted dry, and weighed. Left ventricles (LV) were cut in half at the occlusion site, with the upper part fixed in Neutral Buffer Formalin (NBF, Thermo Fisher Scientific, Melbourne, Australia) and the apex placed in Tissue-Tek® optimal cutting temperature (OCT) compound (Tissue-Tek, Torrance, USA) for storage at −80° C.
# Body and organ weights were measured to examine effects of drug treatments on systemic and cardiac characteristics in mice subjected to myocardial ischaemia-reperfusion injury or sham operation. Although there was no difference between the two vehicles (10% DMSO) in saline i.v. vs. 10% DMSO containing 0.8% Tween 20 in saline, i.p.), data from these two groups were combined for group analysis.
# Assessment of cardiac inflammation in vivo: Lungs, atria, left and right ventricles from mice in Cohort 3 (following 60 min ischemia and 48 h reperfusion, optimal timing for detecting cardiac leukocyte infiltration) were dissected, blotted dry, and weighed. LV were cut in half at the occlusion site, and the apical half placed in Tissue-Tek® optimal cutting temperature compound (Tissue-Tek, Torrance, USA) for storage at −80° C. LV tissues were then sectioned at 6 μm for immunofluorescent detection of cardiac macrophage and neutrophil content. Sections were pre-incubated with 4% paraformaldehyde for 20 min and 10% normal goat serum for a further 30 min. Sections were then incubated at RT with either CD68+ primary antibody or Ly-6B.2 primary antibody (1:200, ABD Serotec, Raleigh, USA) for 1 h, followed by 30 min incubation with the Alexa Fluor 546 secondary antibody (1:200, Invitrogen, Carlsbad, USA). Finally, sections were incubated with 0.001% Hoechst 33342 (Invitrogen, Melbourne, Australia) for 30 min, to elicit nuclear staining. Single images were photographed using a Nikon A1R confocal microscope (Nikon Instruments Inc., NY, USA) under 20× magnification, and 9×9 single images were then automatically stitched together using NIS-Elements AR software (version 4.10 for Windows, Nikon Instruments Inc., NY, USA) to form each complete composite LV image. The images for infarct area were captured under 40× magnification, and the stitched images were then analyzed using Fiji software (version 1.48c for Max OS X, National Institutes of Health, USA). The threshold was set for each image, to enable optimal sensing and quantification of red fluorescence intensity above threshold, and the software then automatically quantified these red fluorescent signals.
Compound,"Body Weight (Table 5, 48 h myocardial I-R) [g]","Organ weight (mg), LV (Table 5, 48 h myocardial I-R) [mg]","Organ weight (mg), RV (Table 5, 48 h myocardial I-R) [mg]","Organ weight (mg), atria (Table 5, 48 h myocardial I-R) [mg]","Organ weight (mg), heart (Table 5, 48 h myocardial I-R) [mg]","Organ weight (mg), lung (Table 5, 48 h myocardial I-R) [mg]","Organ weight: body weight (mg/g), LV (Table 5, 48 h myocardial I-R) [mg/g]","Organ weight: body weight (mg/g), RV (Table 5, 48 h myocardial I-R) [mg/g]","Organ weight: body weight (mg/g), atria (Table 5, 48 h myocardial I-R) [mg/g]","Organ weight: body weight (mg/g), heart (Table 5, 48 h myocardial I-R) [mg/g]","Organ weight: body weight (mg/g), lung (Table 5, 48 h myocardial I-R) [mg/g]","Body Weight (Table 6, 7 d myocardial I-R) [g]","Organ weight (mg), LV (Table 6, 7 d myocardial I-R) [mg]","Organ weight (mg), RV (Table 6, 7 d myocardial I-R) [mg]","Organ weight (mg), atria (Table 6, 7 d myocardial I-R) [mg]","Organ weight (mg), heart (Table 6, 7 d myocardial I-R) [mg]","Organ weight (mg), lung (Table 6, 7 d myocardial I-R) [mg]","Organ weight: body weight (mg/g), LV (Table 6, 7 d myocardial I-R) [mg/g]","Organ weight: body weight (mg/g), RV (Table 6, 7 d myocardial I-R) [mg/g]","Organ weight: body weight (mg/g), atria (Table 6, 7 d myocardial I-R) [mg/g]",further results
"COc1cccc(Cc2cc(C)nn(C(C)C(=O)Nc3ccc(Br)cc3)c2=O)c1 (stereo not drawn) [BIDI-001, N-(4-bromophenyl)-2-[5-(3-methoxybenzyl)-3-methyl-6-oxo-6H-pyridazin-1-yl]-propionamide]",28.2 ± 1.0,105.0 ± 8.3,24.9 ± 3.1,14.6 ± 1.2,147 ± 11,157 ± 6,3.7 ± 0.2,1.0 ± 0.0,0.5 ± 0.0,5.2 ± 0.3,5.6 ± 0.2,24.3 ± 0.5,70.1 ± 2.9,19.0 ± 1.0,7.3 ± 0.8,96 ± 4,132 ± 3,2.9 ± 0.1,0.8 ± 0.3,0.3 ± 0.0,"Organ weight: body weight (mg/g), heart (Table 6, 7 d myocardial I-R): 4.0 ± 0.1 mg/g; Organ weight: body weight (mg/g), lung (Table 6, 7 d myocardial I-R): 4.7 ± 0.7 mg/g; Body Weight (BW, g) (48 h myocardial I-R): 28 ± 1 g; Organ weight: BW (mg/g), LV (48 h myocardial I-R): 3.7 ± 0.2 mg/g; Organ weight: BW (mg/g), RV (48 h myocardial I-R): 1.0 ± 0.0 mg/g; Organ weight: BW (mg/g), atria (48 h myocardial I-R): 0.5 ± 0.0 mg/g; Organ weight: BW (mg/g), heart (48 h myocardial I-R): 5.2 ± 0.3 mg/g; Organ weight: BW (mg/g), lung (48 h myocardial I-R): 5.6 ± 0.2 mg/g; BW (7 days myocardial I-R): 24 ± 1 g; Organ weight: BW (mg/g), LV (7 days myocardial I-R): 2.9 ± 0.1 mg/g; Organ weight: BW (mg/g), RV (7 days myocardial I-R): 0.8 ± 0.3 mg/g; Organ weight: BW (mg/g), atria (7 days myocardial I-R): 0.3 ± 0.0 mg/g; Organ weight: BW (mg/g), heart (7 days myocardial I-R): 4.0 ± 0.1 mg/g; Organ weight: BW (mg/g), lung (7 days myocardial I-R): 5.4 ± 0.1 mg/g; Heart weight normalized to body weight versus sham: significantly increased; Effect on total heart weight and LV weight normalized to body weight: significantly reduced"
CC(C)C1C(NC(=O)Nc2ccc(Cl)cc2)C(=O)N(c2ccccc2)N1C (stereo not drawn) [BIDI-002],27 ± 0.6,94.9 ± 7.5,22.9 ± 1.7,9.9 ± 2.8,132 ± 11,154 ± 6,3.5 ± 0.2,0.8 ± 0.0,0.5 ± 0.1,4.8 ± 0.3,5.7 ± 0.1,23.8 ± 0.9,89.0 ± 4.2,21.4 ± 1.6,7.8 ± 0.5,118 ± 6,138 ± 7,3.7 ± 0.1,0.9 ± 0.1,0.3 ± 0.0,"Organ weight: body weight (mg/g), heart (Table 6, 7 d myocardial I-R): 5.0 ± 0.2 mg/g; Organ weight: body weight (mg/g), lung (Table 6, 7 d myocardial I-R): 5.8 ± 0.3 mg/g; Body Weight (BW, g) (48 h myocardial I-R): 27 ± 1 g; Organ weight: BW (mg/g), LV (48 h myocardial I-R): 3.5 ± 0.2 mg/g; Organ weight: BW (mg/g), RV (48 h myocardial I-R): 0.8 ± 0.0 mg/g; Organ weight: BW (mg/g), atria (48 h myocardial I-R): 0.5 ± 0.1 mg/g; Organ weight: BW (mg/g), heart (48 h myocardial I-R): 4.8 ± 0.3 mg/g; Organ weight: BW (mg/g), lung (48 h myocardial I-R): 5.7 ± 0.1 mg/g; BW (7 days myocardial I-R): 24 ± 1 g; Organ weight: BW (mg/g), LV (7 days myocardial I-R): 3.7 ± 0.1 mg/g; Organ weight: BW (mg/g), RV (7 days myocardial I-R): 0.9 ± 0.1 mg/g; Organ weight: BW (mg/g), atria (7 days myocardial I-R): 0.3 ± 0.0 mg/g; Organ weight: BW (mg/g), heart (7 days myocardial I-R): 5.0 ± 0.2 mg/g; Organ weight: BW (mg/g), lung (7 days myocardial I-R): 5.8 ± 0.3 mg/g; Effect on total heart weight and LV weight normalized to body weight: not; Effect on total heart weight and LV weight normalized to body weight (listed as Cmpd43): not shared"
"Ac2-26: Annexin-A1 N-terminal peptide, peptide ANX-A1 mimetic (Ac-AMVSEFLKQAWFIENEEQEYVQTVK; UniProt P04083 2-26, looked up, fragment)",28.2 ± 1.0,109.8 ± 5.5,24.3 ± 0.9,10.1 ± 0.7,144 ± 6,145 ± 9,3.8 ± 0.2,0.8 ± 0.0,0.3 ± 0.0,5.0 ± 0.2,5.0 ± 0.3,25.6 ± 1.0,102.9 ± 6.5,17.8 ± 2.4,8.3 ± 1.0,129 ± 10,147 ± 7,4.0 ± 0.2,0.7 ± 0.1,0.3 ± 0.0,"Organ weight: body weight (mg/g), heart (Table 6, 7 d myocardial I-R): 5.0 ± 0.2 mg/g; Organ weight: body weight (mg/g), lung (Table 6, 7 d myocardial I-R): 5.7 ± 0.2 mg/g; Heart weight normalized to body weight versus sham: significantly increased; Effect on total heart weight and LV weight normalized to body weight: not"
